Laboratory results from patent US9579319B2 (Redx Pharma PLC, priority 2013, dated 2017).
Values after ≈ are worked out from the molar mass of the structure shown. Like-named read-outs stand apart in the source and are kept apart here.

Key:
[1] = tested on: Hedgehog signalling pathway; experiment: Gli-reporter NIH3T3 luciferase assay (Hedgehog pathway inhibition); type: cell-based; conditions: NIH3T3, Gli-reporter NIH-3T3 cells, recombinant mouse sonic hedgehog, 24 hours, luminescence
Procedure, shortened: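 Mouse NIH3T3 cells with Gli-responsive luciferase reporter, pre-treated 1 h with compound (top final concentration 1 μM, 0.1% DMSO) in 0.5% calf serum medium. Then stimulated with recombinant mouse sonic hedgehog for 24 h at 37° C. Luminescence read-out (OneGLO), triplicates; IC50 reported.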

[2] = Thermodynamic solubility with filtration; type: physicochemical; conditions: aqueous buffer, thermodynamic from solid, pH 7.4 phosphate buffer (0.1 M), room temperature, filtered
Protocol: Thermodynamic Solubility with Filtration
0.5 mg is weighed into a Mini Uniprep filter vial (Whatman, PVDF, 0.2 μm). 0.5 mL of pH 7.4 phosphate buffer (0.1 M) is dispensed and the vial is shaken at 600 rpm for 24 h at room temperature. At the end of this period, the solution is then filtered and an aliquot of the filtrate is used to create a tenfold dilution. Standards are prepared by serially diluting a 1250 μg/mL DMSO stock solution of the compound to 125 and 2.5 μg/mL, in Acetonitrile/Water (50:50, v/v). The concentration of the filtrate and tenfold dilution is measured by detection against the two calibration standards.

[3] = read-out: Category (Hedgehog pathway inhibition activity, IC50)

Row | SMILES | IC50 ([1]; read-out: Gli luc IC50) [nM] | solubility at 24 h [2] [µg/mL] | IC50 [1, 3] [nM] | other results
1 | Cc1nc(CN(C)C2CCN(c3nnc(-c4ccnn4C)c4ccccc34)CC2)c(C(F)(F)F)o1 [Example 98, N-methyl-1-[4-(2-methylpyrazol-3-yl)phthalazin-1-yl]-N-[[2-methyl-5-(trifluoromethyl)oxazol-4-yl]methyl]piperidin-4-amine] | 10 to 200 | 106 (≈ 218 µM) | – | –
2 | Cc1c(-c2ccnn2C)nnc(N2CCC(NC(=O)NC(C)(C)C)CC2)c1C [Example 116, 1-tert-butyl-3-[1-[4,5-dimethyl-6-(2-methylpyrazol-3-yl)pyridazin-3-yl]-4-piperidyl]urea] | 10 to 200 | 1260 (≈ 3270 µM) | – | –
3 | CN(C(=O)Nc1ccc(F)cc1C(F)(F)F)C1CCN(c2nnc(-c3ccnn3C)c3ccncc23)CC1 [Example 112, 3-[4-fluoro-2-(trifluoromethyl)phenyl]-1-methyl-1-[1-[1-(2-methylpyrazol-3-yl)pyrido[3,4-d]pyridazin-4-yl]-4-piperidyl]urea] | < 10 | 399 (≈ 755 µM) | – | IC50 ([1]; read-out: Gli Luc nM (IC50)): 1.26 nM
4 | Cc1nc(CN(C)C2CCN(c3nnc(-c4ccnn4C)c(C)c3C)CC2)c(C(F)(F)F)o1 [Example 97, 1-[4,5-dimethyl-6-(2-methylpyrazol-3-yl)pyridazin-3-yl]-N-methyl-N-[[2-methyl-5-(trifluoromethyl)oxazol-4-yl]methyl]piperidin-4-amine] | 10 to 200 | 1010 (≈ 2180 µM) | – | –
5 | Cc1c(-c2ccnn2C)nnc(N2CCC(N(C)Cc3ccncn3)CC2)c1C [Example 171, 1-[4,5-dimethyl-6-(2-methylpyrazol-3-yl)pyridazin-3-yl]-N-methyl-N-(pyrimidin-4-ylmethyl)piperidin-4-amine] | > 1000 | – | – | –
6 | Cn1nccc1-c1nnc(N2CCC(NC(=O)NC3CCCCC3)CC2)c2ccccc12 [Example 11, 1-cyclohexyl-3-[1-[4-(2-methylpyrazol-3-yl)phthalazin-1-yl]-4-piperidyl]urea] | – | – | < 10 | –
7 | CN(Cc1cccc(C#N)c1)C1CCN(c2nnc(-c3ccnn3C)c3c2CCC3)CC1 [Example 131, 3-[[methyl-[1-[1-(2-methylpyrazol-3-yl)-6,7-dihydro-5H-cyclopenta[d]pyridazin-4-yl]-4-piperidyl]amino]methyl]benzonitrile] | 10 to 200 | – | – | –
8 | COc1ccc(NC(=O)NC2CCN(c3nnc(-c4ccnn4C)c4ccccc34)CC2)cc1 [Example 45, 1-(4-methoxyphenyl)-3-[1-[4-(2-methylpyrazol-3-yl)phthalazin-1-yl]-4-piperidyl]urea] | – | – | 10 to 200 | –
9 | CN(Cc1ccc(F)cc1C(F)(F)F)C1CCN(c2nnc(-c3ccnn3C)c3ccccc23)C1 (stereo not shown) [Example 55, N-[[4-fluoro-2-(trifluoromethyl)phenyl]methyl]-N-methyl-1-[4-(2-methylpyrazol-3-yl)phthalazin-1-yl]pyrrolidin-3-amine] | – | – | 10 to 200 | –
10 | CC(=O)N(Cc1ccc(F)cc1C(F)(F)F)C1CCN(c2nnc(-c3ccnn3C)c3ccccc23)CC1 [Example 77, N-[[4-fluoro-2-(trifluoromethyl)phenyl]methyl]-N-[1-[4-(2-methylpyrazol-3-yl)phthalazin-1-yl]-4-piperidyl]acetamide] | – | – | 10 to 200 | –
11 | Cc1nc(C(F)(F)F)c(CN(C)C2CCN(c3nnc(-c4ccnn4C)c4ccccc34)CC2)s1 [Example 96, N-methyl-1-[4-(2-methylpyrazol-3-yl)phthalazin-1-yl]-N-[[2-methyl-4-(trifluoromethyl)thiazol-5-yl]methyl]piperidin-4-amine] | < 10 | – | – | –

The next lines start with results.

Row | IC50 ([1]; read-out: Gli luc IC50) [nM] | solubility at 24 h [2] [µg/mL] | IC50 [1, 3] [nM] | SMILES | other results
12 | 10 to 200 | 1190 (≈ 2890 µM) | – | Cc1ccccc1CNC1CCN(c2nnc(-c3ccnn3C)c3ccccc23)CC1 [Example 170, 1-[4-(2-methylpyrazol-3-yl)phthalazin-1-yl]-N-(o-tolylmethyl)piperidin-4-amine] | –
13 | < 10 | 321 (≈ 687 µM) | – | Cn1nccc1-c1nnc(N2CCC(NCc3cnccc3C(F)(F)F)CC2)c2ccccc12 [Example 156, 1-[4-(2-methylpyrazol-3-yl)phthalazin-1-yl]-N-[[4-(trifluoromethyl)-3-pyridyl]methyl]piperidin-4-amine] | –
14 | – | – | < 10 | Cc1ccccc1CN(C)C1CCN(c2nnc(-c3ccnn3C)c3ccccc23)CC1 [Example 30, N-methyl-1-[4-(2-methylpyrazol-3-yl)phthalazin-1-yl]-N-(o-tolylmethyl)piperidin-4-amine] | –
15 | – | – | 10 to 200 | Cn1nccc1-c1nnc(N2CCC(NCc3ccc(OC(F)(F)F)cc3)CC2)c2ccccc12 [Example 20, 1-[4-(2-methylpyrazol-3-yl)phthalazin-1-yl]-N-[[4-(trifluoromethoxy)phenyl]methyl]piperidin-4-amine] | –
16 | – | – | 10 to 200 | CC(C)c1ccccc1CNC1CCN(c2nnc(-c3ccnn3C)c3ccccc23)CC1 [Example 43, N-[(2-isopropylphenyl)methyl]-1-[4-(2-methylpyrazol-3-yl)phthalazin-1-yl]piperidin-4-amine] | –
17 | 10 to 200 | – | – | Cn1nccc1-c1nnc(N2CCC(NCc3ccccc3S(C)(=O)=O)CC2)c2ccccc12 [Example 115, 1-[4-(2-methylpyrazol-3-yl)phthalazin-1-yl]-N-[(2-methylsulfonylphenyl)methyl]piperidin-4-amine] | –
18 | – | – | 200 to 2000 | COc1ccccc1CNC1CCN(c2nnc(-c3ccnn3C)c3ccccc23)CC1 [Example 69, N-[(2-methoxyphenyl)methyl]-1-[4-(2-methylpyrazol-3-yl)phthalazin-1-yl]piperidin-4-amine] | –
